This note sets out measurements from patent EP0973746B1, “SUBSTITUTED 3-CYANO QUINOLINES” (Wyeth Holdings Corporation, priority 1997, dated 1998).

This experiment concerns LNCAP. In words: Inhibition of cancer cell growth as measured by cell number, LNCAP. Type of experiment: cell-based. Conditions: Homo sapiens, 48 h, read-out: IC50 LNCAP.

Converted amounts (≈) assume the structure as drawn.

As to `CCOc1cc2ncc(C#N)c(Nc3cccc(Br)c3)c2cc1OCC` [Example 47, 4-[(3-Bromophenyl)amino]6,7-diethoxy-3-quinolinecarbonitrile], the IC50 is 0.0337 µg/mL (≈ 0.0816 µM).
